Consider three molecules from US20070207160A1, “Apoptosis inhibitors” (priority 1994, published 2007).

Type in all cases: cell-based
One assay concerns L 29-APO-1 cells. As to the kind of experiment: Inhibition of apoptosis induced by an anti-APO-1 antibody using DCI (MTT assay). To be noted: DCI 45 μM or 15 μM, 1 hour before anti-APO-1 antibody for 7 hours, FIG. 2B. As for the experimental part: FIG. 2B depicts the inhibition of apoptosis by DCI. L 29-APO-1 cells were incubated with DCI (●45μM, ▴15 μM) or without DCI (◯). After one hour, anti-APO-1 antibody was added in the amounts indicated in FIG. 2B and allowed to remain on the cells for 7 hours. The percentage cell death was determined by formazan production from diphenyltetrazolium salt (MTT assay).
A general note: Tetrazolium dyes change colour on reduction, which living cells bring about.

For assay [1], the system named is L 29-APO-1 cells and SKW 6.4 cells. As to the kind of experiment: Inhibition of apoptosis induced by an anti-APO-1 antibody using YVAD-CHO (DNA fragmentation, Hoechst dye 33342, FACS). To be noted: permeabilized L 29-APO-1 and SKW 6.4 cells, YVAD-CHO 30 minutes, then anti-APO-1 antibodies 1 μg/ml for 60 minutes; FIG. 2C. The procedure: FIG. 2C depicts the inhibition of apoptosis by YVAD-CHO.
L 29-APO-1 cells (◯) and SKW 6.4 cells (●) were permeabilized by a short hypotonic shock and incubated with the indicated concentrations of YVAD-CHO indicated in FIG. 2C for 30 minutes. The cells were incubated with anti-APO-1 antibodies (1 μg/ml) for 60 minutes. Apoptosis was determined by measuring a DNA fragmentation using the Hoechst dye 33342 (Molecular Probes Eugene, Oreg.). Data of specific cell death (cell death in the presence of an anti-APO-1 antibody minus cell death in the absence of such an antibody) was obtained from triple measurements by using an FACS Vantage flow cytometer. Spontaneous cell death in the absence of an anti-APO-1 antibody was less than 7%.

The test system of a further assay is SKW 6.4 cells. As to the kind of experiment: Inhibition of apoptosis induced in SKW 6.4 cells by anti-APO-1 antibody. To be noted: SKW 6.4 cells incubated with anti-APO-1 antibody (20 ng/ml) and varying amounts of inhibitor for 24 hours, FIG. 1. The procedure: FIG. 1 depicts the inhibition of apoptosis induced in SKW6.4 cells by means of anti-APO-1 antibodies (20 ng/ml) by human APO-1-Ig and anti-APO-1F(ab′)2, respectively.
SKW 6.4 cells (Oehm et al, supra) are apoptosis-positive cells, i.e. apoptosis can be induced therein, e.g. by binding an anti-APO-1 antibody.
SKW 6.4 cells were incubated with an anti-APO-1 antibody in the presence of varying amounts of the fusion protein of Example 1 (human APO-1-Ig) and of anti-APO-1-F(ab)2 (see above), respectively, for 24 hours. The inhibition of apoptosis was determined. See, FIG. 1.

With `O=c1oc(Cl)c(Cl)c2ccccc12` [DCI, 3,4-dichloroisocoumarin], the “inhibition of apoptosis induced by an anti-APO-1 antibody (percentage cell death, MTT assay)” value in the assay on L 29-APO-1 cells is given as “can be inhibited”. Regarding YVAD-CHO, the “inhibition of apoptosis induced by an anti-APO-1 antibody (specific cell death, DNA fragmentation)” value in assay [1] is “can be inhibited”.

B1: fused portion of Example 1: Fusion protein in which an extracellular APO-1 domain is fused via an antibody-hinge region to an Fc portion of a human antibody (protein)
chain: QVTDINSKGLELRKTVTTVETQNLEGLHHDGQFCHKPCPPGERKARDCTVNGDEPDCVPCQEGKEYTDKAHFSSKCRRCRLCDEGHGLEVEINCTRTQNTKCRCKPNFFCNSTVCEHCDPCTKCEHGIIKECTLTSNTKCKEEGSRSN
modifications: left off: a dimerising Fc or GST
notes: Fusion protein in which an extracellular APO-1 domain is fused via an antibody-hinge region to an Fc portion of a human antibody
As to B1, the inhibition of apoptosis result in the assay on SKW 6.4 cells is on record as “strong apoptosis-inhibiting effect”; with SKW 6.4 cells (listed as fusion protein) it was “especially strong”.
